Source: US20260258017A1, “CO-CRYSTAL FORMS OF SELINEXOR” (Karyopharm Therapeutics Inc., priority 2019, published 2026)

How the values were obtained:
[1] = comparison statement for selinexor itself; no medium given; cited from earlier work
[2] = DVS moisture sorption isotherm; type: physicochemical; conditions: 25° C., 0-90% RH, 10% RH intervals
Description: Sorption isotherms are obtained using a TA Instruments Q5000 SA DVS. The sample temperature is maintained at 25° C. by the instrument controls. The humidity is controlled by mixing streams of dry and wet nitrogen, with a total flow rate of 200 ml/min. The relative humidity is measured by a calibrated probe (dynamic range of […]), located near the sample. The weight change, (mass relaxation) of the sample as a function of % RH is constantly monitored by a microbalance (accuracy 0.0001 mg). Typically, 3-10 mg of sample is placed in a tared mesh stainless steel basket under ambient conditions. The sample is loaded and unloaded at 50% RH and 25° C. (typical room conditions). A moisture sorption isotherm is performed as outlined below (2 scans per complete cycle). The standard isotherm is performed at 25° C. at 10% RH intervals over a 0-90% RH range. Typically, a triple cycle is carried out. Data analysis is carried out using TA Instruments Universal Analysis 2000. [table]

In the case of O=C(/C=C\n1cnc(-c2cc(C(F)(F)F)cc(C(F)(F)F)c2)n1)NNc1cnccn1 [selinexor, (Z)-3-(3-(3,5-bis(trifluoromethyl)phenyl)-IH-I,2,4-triazol-1-yl)-N′-(pyrazin-2yl)acrylohydrazide], the solubility [1] is given as “low solubility” and the DVS water adsorption [2] is given as “does not adsorb water”.
